According to the supplement of paper PMC13380429:
± gives the standard deviation of the averaged measurements.

What was measured:
Conditions in all cases: 72 h
HepG2 [1] = test: cell viability relative to DMSO; higher = less toxic
Vero E6 [2] = test: as above
Caco-2 [3] = test: as above
Calu-3 [4] = test: as above
U2OS [5] = test: as above
HepG2 [6] = test: relative viability EC50 (midpoint between 100% and the lowest measured viability); higher = less toxic
Vero E6 [7] = test: as above
Caco-2 [8] = test: as above
Calu-3 [9] = test: as above
U2OS [10] = test: as above
HepG2 [11] = test: drug sensitivity score (DSS) for viability; higher = more toxic; extreme values may be limits of the assay
Vero E6 [12] = test: as above
Caco-2 [13] = test: as above
Calu-3 [14] = test: as above
U2OS [15] = test: as above

SMILES | cell viability (HepG2 [1]; 1 nM) [%] | cell viability (HepG2 [1]; 10 nM) [%] | cell viability (HepG2 [1]; 100 nM) [%] | cell viability (HepG2 [1]; 1000 nM) [%] | cell viability (HepG2 [1]; 10000 nM) [%] | cell viability (Vero E6 [2]; 1 nM) [%] | cell viability (Vero E6 [2]; 10 nM) [%] | cell viability (Vero E6 [2]; 100 nM) [%] | cell viability (Vero E6 [2]; 1000 nM) [%] | cell viability (Vero E6 [2]; 10000 nM) [%] | cell viability (Caco-2 [3]; 1 nM) [%] | cell viability (Caco-2 [3]; 10 nM) [%] | cell viability (Caco-2 [3]; 100 nM) [%] | cell viability (Caco-2 [3]; 1000 nM) [%] | cell viability (Caco-2 [3]; 10000 nM) [%] | cell viability (Calu-3 [4]; 1 nM) [%] | cell viability (Calu-3 [4]; 10 nM) [%] | cell viability (Calu-3 [4]; 100 nM) [%] | cell viability (Calu-3 [4]; 1000 nM) [%] | cell viability (Calu-3 [4]; 10000 nM) [%] | cell viability (U2OS [5]; 1 nM) [%] | cell viability (U2OS [5]; 10 nM) [%] | cell viability (U2OS [5]; 100 nM) [%] | cell viability (U2OS [5]; 1000 nM) [%] | cell viability (U2OS [5]; 10000 nM) [%] | relative viability EC50 (HepG2 [6]) [µM] | relative viability EC50 (Vero E6 [7]) [µM] | relative viability EC50 (Caco-2 [8]) [µM] | relative viability EC50 (Calu-3 [9]) [µM] | relative viability EC50 (U2OS [10]) [µM] | drug sensitivity score (HepG2 [11]) | drug sensitivity score (Vero E6 [12]) | drug sensitivity score (Caco-2 [13]) | drug sensitivity score (Calu-3 [14]) | drug sensitivity score (U2OS [15])
CN(C)C(=O)N[C@H]1CC[C@H](CCN2CCN(c3cccc(Cl)c3Cl)CC2)CC1 [cariprazine] | 93 | 91.1 | 93.8 | 100 | 94.7 | 97.3 | 98.6 | 96.8 | 104 | 95.3 | 95.7 | 95.2 | 96.5 | 86.6 | 97.2 | 102 | 93 | 100 | 97.9 | 106 | 100 | 102 | 98 | 95.9 | 100 | > 10 | > 10 | > 10 | > 10 | > 10 | 0 | 0 | 0 | 0 | 0
CC1=C(C(=O)O)N2C(=O)[C@@H](NC(=O)[C@H](N)C3=CCC=CC3)[C@H]2SC1 [cephradine] | 99.9 ± 3.4 | 94.2 ± 3.5 | 98 ± 7.6 | 102 ± 10 | 108 ± 3.1 | 95.2 ± 3 | 97 ± 3.8 | 94.5 ± 3 | 98.4 ± 4.1 | 99.2 ± 1.1 | 96.75 ± 0.92 | 100 ± 9.7 | 94.8 ± 0.85 | 98 ± 3.8 | 103 ± 14 | 92.7 ± 0.85 | 98.1 ± 5.7 | 98.3 ± 2 | 106 ± 9.1 | 89.2 ± 6 | 96.4 ± 0.99 | 99.7 ± 2.4 | 100 ± 3.5 | 103.8 ± 0.78 | 101.7 ± 0.78 | > 10 | > 10 | > 10 | > 10 | > 10 | 0 | 0 | 0 | 0.15 ± 0.21 | 0
CCCCCCCCCCCCCCCC[N+](C)(C)C [cetrimonium] | 97.9 | 93.2 | 96.5 | 93.6 | 28 | 96.5 | 93.5 | 97.7 | 87.5 | 23.8 | 92.7 | 95.9 | 96.3 | 86.6 | 18.5 | 97.7 | 97.8 | 109 | 83.6 | 43.1 | 99 | 95 | 97.5 | 84.6 | 14.3 | 2.43 | 1.91 | 1.9 | 1.44 | 1.83 | 5 | 6.3 | 6.8 | 5.5 | 7.3
C[N+](C)(C)CC[N+]1(C)Cc2c(Cl)c(Cl)c(Cl)c(Cl)c2C1 [chlorisondamine-diiodide] | 94 | 110 | 103 | 99.9 | 101 | 100 | 95.5 | 95.7 | 97.4 | 94 | 92.1 | 93 | 99.9 | 103 | 88.8 | 93.2 | 102 | 102 | 89.8 | 100 | 97.2 | 96.2 | 96.1 | 97.5 | 92.5 | > 10 | > 10 | > 10 | > 10 | > 10 | 0 | 0 | 0 | 0 | 0
Cc1cc(O)ccc1Cl [chlorocresol] | 100 | 100 | 99 | 103 | 102 | 96.2 | 103 | 100 | 111 | 99.4 | 109 | 104 | 100 | 97.4 | 95.1 | 99.8 | 92.3 | 96.3 | 105 | 101 | 105 | 99.6 | 103 | 97.8 | 100 | > 10 | > 10 | > 10 | > 10 | > 10 | 0 | 0 | 0 | 0 | 0
O=C(O)/C=C\c1c[nH]cn1 [cis-Urocanic acid] | 97.1 | 95.9 | 88.1 | 102 | 95.2 | 99.5 ± 3.1 | 99.8 | 100 ± 4.2 | 100.8 ± 0.64 | 99 ± 1.8 | 93.8 ± 14 | 96.7 ± 3.2 | 92.3 ± 7.2 | 91.5 ± 8.9 | 98.1 ± 5.9 | 107 ± 4.3 | 108 ± 11 | 100 ± 4.8 | 98 ± 8.6 | 96.6 ± 3 | 99.2 ± 3 | 97.5 ± 2.8 | 97.7 ± 1.1 | 97.4 ± 4 | 100 ± 1.8 | > 10 | > 10 | > 10 | > 10 | > 10 | 0 | 0 | 1.25 ± 1.8 | 0 | 0
